Measured values reported in US11135322B2, “Radiofluorination method” (GE HEALTHCARE LIMITED, priority 2012, dated 2021).

Assay: Hydrolytic stability of the metal halide complexes in aqueous solution (19F and 71Ga NMR studies)
Format: physicochemical
Text: ^19F and ^71Ga NMR studies show complete conversion to [GaF3(Me3-tacn)]. Furthermore they confirm that the structure of the complex is retained in solution. […] The structure has also been confirmed crystallographically (FIG. 2). This provides clear evidence that direct incorporation of fluoride into the coordination sphere of carefully selected metal ions is entirely feasible, as well as establishing the high stability of the resulting fluoro complexes, even in aqueous solution.

resistance to hydrolysis / hydrolytic stability (aqueous solution): resistant to hydrolysis
Substance: [GaF3(Me3-tacn)].4H2O
stability relative to analogous halide or metal complexes (comparison with analogues): considerably more stable than the chloride and bromide analogues
